Data as given in ChEMBL document CHEMBL4402592, “Targeting Endoplasmic Reticulum α-Glucosidase I with a Single-Dose Iminosugar Treatment Protects against Lethal Influenza and Dengue Virus Infections” (J Med Chem, 2020).
Calls of active or inactive are those of the source. No cut-off for these calls is given here.

Test system: Influenza A virus
Assay: Antiviral activity against Influenza A virus (A/PA/10/2010 (H3N2)) infected in BALB/c mouse assessed as increase in animal survival rate at 10 mg/kg, po administered via gavage starting at 8 hrs post infection and continuing BID for 6 days
Assay type: functional, organism-based

In the case of `CCOC(=O)C1=C[C@@H](OC(CC)CC)[C@H](NC(C)=O)[C@@H](N)C1`, the Activity is reported as “Active”.
